According to paper PMC10826971, “Evaluating protein cross-linking as a therapeutic strategy to stabilize SOD1 variants in a mouse model of familial ALS” (PLOS Biology, 2024):

How the values were obtained:
SOD1 = SOD1 (Homo sapiens, UniProt P00441); assay type: binding
Experimental: A computational search was performed in PubChem to identify all compounds containing a cyclic disulfide motif. […] Of these, 69 compounds cross-linked SOD1 with a wide array of reaction rates. Only 2 compounds could cross-link 100% of SOD1 during the assay, including one 5-membered cyclic disulfide (4-Amino-1,2-Dithiolane-4-Carboxylic Acid) and one 6-membered cyclic thiosulfinate (1,2-dithiane 1-oxide).

transthyretin = conditions: only approved drug with a kinetic stabilizing mechanism; cited from earlier work

SOD1, sequence (P00441 2-154 limits assumed): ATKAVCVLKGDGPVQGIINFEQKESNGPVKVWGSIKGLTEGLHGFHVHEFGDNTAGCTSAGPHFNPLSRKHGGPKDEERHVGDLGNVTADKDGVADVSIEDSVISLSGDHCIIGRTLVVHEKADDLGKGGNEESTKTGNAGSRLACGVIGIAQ

Row | SMILES | SOD1 cross-linked during the assay (SOD1) | increase in thermal stability (transthyretin)
1 | NC1(C(=O)O)CSSC1 [4-Amino-1,2-Dithiolane-4-Carboxylic Acid] | 100% | 
2 | O=C(O)c1ccc2nc(-c3cc(Cl)cc(Cl)c3)oc2c1 [tafamidis] |  | 6 °C
